# From patent US20160158200A1, “Combinations of Hepatitis C Virus Inhibitors” (priority 2013, published 2016)
# System: HCV genotype-1a variant with glutamine 30 changed to glutamate in the NS5A protein
# Assay type: cell-based
# Conditions: test compound titrated with BMS-790052 fixed at 200 nM; genotype 1a Q30E replicon
# Summary of the method: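 Synergy was assessed by combining several fixed amounts of an NS5A-targeting compound with a titration of the second compound of interest.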
row,SMILES,Fold-Synergistic 1a (Q30E)
1,CC1(C)CCN(C(=O)C2(N3CCC(F)(F)CC3)COC2)C1c1nc(-c2ccc(-c3ccc(-c4c[nH]c(C5N(C(=O)C6(N7CCC(F)(F)CC7)COC6)CCC5(C)C)n4)cc3)cc2)c[nH]1 (centres unmarked) [Compound W-220],>10 fold
2,CCOC(=O)C1(C(=O)N[C@H](c2nc(-c3ccc(-c4ccc(-c5c[nH]c([C@@H](NC(=O)C6(C(=O)OCC)CCCCC6)C(C)(C)C)n5)cc4)cc3)c[nH]2)C(C)(C)C)CCCCC1 [Compound N-146],>100 fold
3,CC(C)C(NC(=O)C1CC1c1ccccc1)c1ncc(-c2ccc(-c3ccc(-c4cnc(C(NC(=O)C5CC5c5ccccc5)C(C)C)[nH]4)cc3)cc2)[nH]1 (centres unmarked) [Compound S-21],>100 fold
4,CC(C)(NCC(F)(F)F)C(=O)NC(c1nc(-c2ccc(-c3ccc(-c4c[nH]c(C(NC(=O)C(C)(C)NCC(F)(F)F)C(C)(C)C)n4)cc3)cc2)c[nH]1)C(C)(C)C [Compound L-50],>100 fold
5,Cc1ccc(CC(=O)N[C@H](c2ncc(-c3ccc(-c4ccc(-c5cnc([C@@H](NC(=O)Cc6ccc(C)cc6)C(C)C)[nH]5)cc4)cc3)[nH]2)C(C)C)cc1 [Compound S-42],>100 fold
6,CC(OC(=O)NC1(C(=O)NC(c2nc(-c3ccc(-c4ccc(-c5c[nH]c(C(NC(=O)C6(NC(=O)OC(C)C(F)(F)F)CC6)C6(C)CC6)n5)cc4)cc3)c[nH]2)C2(C)CC2)CC1)C(F)(F)F [Compound L-42],>100 fold
7,CO[C@H](C(=O)N[C@H](c1nc(-c2ccc(-c3ccc(-c4c[nH]c([C@@H](NC(=O)[C@@H](OC)c5ccccc5)C(C)(C)C)n4)cc3)cc2)c[nH]1)C(C)(C)C)c1ccccc1 [Compound P-18],>100 fold
8,CC(C)[C@H](NC(=O)c1c(F)cccc1Cl)c1ncc(-c2ccc(-c3ccc(-c4cnc([C@@H](NC(=O)c5c(F)cccc5Cl)C(C)(C)C)[nH]4)cc3)cc2)[nH]1 [Compound Y-43],>100 fold
9,CC(C)[C@H](NC(=O)c1ccccc1F)c1nc(-c2ccc(-c3ccc(-c4c[nH]c([C@@H](NC(=O)c5ccccc5F)C(C)C)n4)c(F)c3)cc2)c[nH]1.O=C(O)C(F)(F)F [Compound N-92],>100 fold
10,CC(C)C(NC(=O)C(=O)N(C(C)C)C1CC1)c1nc(-c2ccc(-c3ccc(-c4c[nH]c(C(NC(=O)C(=O)N(C(C)C)C5CC5)C(C)C)n4)cc3)cc2)c[nH]1 (centres unmarked) [Compound W-55],>100 fold
11,CC(C)[C@H](NC(=O)c1ccc(Cl)cc1)c1ncc(-c2ccc(-c3ccc(-c4cnc([C@@H](NC(=O)c5ccc(Cl)cc5)C(C)C)[nH]4)cc3)cc2)[nH]1 [Compound S-83],>100 fold
12,CCNC(=O)C(=O)N[C@H](c1nc(-c2ccc(-c3ccc(-c4c[nH]c([C@@H](NC(=O)C(=O)OC(C)(C)C)C(C)(C)C)n4)cc3)cc2)c[nH]1)C(C)(C)C [Compound W-43B],>100 fold
13,CC(=O)c1ccc2cc3cc(-c4cnc([C@@H](NC(=O)C5CCC(F)(F)CC5)C(C)(C)C)[nH]4)ccc3cc2c1 [Compound B28],>100 fold
14,CC(C)[C@H](NC(=O)C1CCC(F)(F)CC1)c1nc2ccc(C#Cc3ccc4nc([C@@H](NC(=O)C5CCC(F)(F)CC5)C(C)C)[nH]c4c3)cc2[nH]1.O=C(O)C(F)(F)F [Compound B42],>100 fold
15,CC(C)CC(=O)NC1(c2ncc(-c3ccc(-c4ccc(-c5cnc(C6(NC(=O)CC(C)C)Cc7ccccc7C6)[nH]5)cc4)cc3)[nH]2)Cc2ccccc2C1.O=C(O)C(F)(F)F.O=C(O)C(F)(F)F [Compound N-19],<10 fold
16,Cc1c(F)cccc1C(=O)N[C@H](c1ncc(-c2ccc(-c3ccc(-c4cnc([C@@H](NC(=O)c5cccc(F)c5C)C(C)C)[nH]4)cc3)cc2)[nH]1)C(C)C [Compound S-97],>100 fold
17,CC(C)[C@H](NC(=O)c1ccc(C#N)s1)c1ncc(-c2ccc(-c3ccc(-c4cnc([C@@H](NC(=O)c5ccc(C#N)s5)C(C)C)[nH]4)cc3)cc2)[nH]1 [Compound P-101],>100 fold
